Measured values as given in patent publication US6362369B1, “Phthalic acid diamide derivatives fluorine-containing aniline compounds as starting material, agricultural and horticultural insecticides, and a method for application of the insecticides” (Nihon Nohyaku Co., Ltd., priority 1997, dated 2002).

Columns and labels:
[1] = tested on: diamondback moth (Plutella xylostella); test: Insecticidal effect on diamondback moth (Test Example 1); format: in vivo; conditions: diamondback moth; judged by the mortality criterion of Test Example 1
In short: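 Triplicate groups of 10 insects were scored: six days after immersion of oviposited Chinese cabbage seedlings and holding at 25 °C post air-drying, hatched larvae were counted. Mortality derived from these counts and insecticidal effect judged by a set criterion.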

[2] = tested on: rice leafroller (Cnaphalocrocis medinalis); test: Insecticidal effect on rice leafroller (Test Example 3); format: in vivo; conditions: 500 ppm; rice lamina immersed; third-instar larvae of rice leafroller; four days after inoculation; 25° C., humidity 70%
In short: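 Insecticidal effect is judged by a predefined criterion from dead/alive counts four days after infesting air-dried lamina with third-instar larvae, kept on moistened filter paper at 25° C, 70% humidity.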

Row | Structure (SMILES) | Insecticidal effect, Test Example 1 [1] | Insecticidal effect, Test Example 3 [2]
1 | CC(C)NC(=O)c1cccc(Cl)c1C(=O)Nc1ccc(OC(F)F)c(Cl)c1 [compound 232] | A (100) | A (100)
2 | CC(C)NC(=O)c1cccc(Cl)c1C(=O)Nc1ccc(OC(F)(F)F)cc1Cl [compound 234] | A (100) | A (100)
3 | CC(C)NC(=O)c1cccc(Cl)c1C(=O)Nc1ccc(OC(F)(F)F)cc1Br [compound 235] | A (100) | A (100)
4 | Cc1cc(OC(F)(F)F)ccc1NC(=O)c1c(Cl)cccc1C(=O)NC(C)C [compound 237] | A (100) | A (100)
5 | Cc1cc(OC(F)(F)Br)ccc1NC(=O)c1c(Cl)cccc1C(=O)NC(C)C [compound 238] | A (100) | A (100)
6 | Cc1cc(Oc2ncc(C(F)(F)F)cc2Cl)ccc1NC(=O)c1c(Cl)cccc1C(=O)NC(C)C [compound 250] | A (100) | D (79-50)
7 | CCOP(=O)(OCC)c1ccc(NC(=O)c2c(Cl)cccc2C(=O)NC(C)C)c(C)c1 [compound 251] | A (100) | A (100)
8 | CC(C)NC(=O)c1cccc(Cl)c1C(=O)Nc1ccc2oc(C(F)(F)F)nc2c1 [compound 255] | A (100) | A (100)
9 | CC(C)NC(=O)c1cccc(Cl)c1C(=O)Nc1ccc2c(c1)nc(C(F)(F)F)n2C [compound 257] | A (100) | B (99-90)
10 | Cc1cc(OC(F)F)ccc1NC(=O)c1c(Cl)ccc(Cl)c1C(=O)NC(C)C [compound 258] | A (100) | A (100)
11 | Cc1cc(Cl)ccc1NC(=O)c1c(Cl)ccc(Cl)c1C(=O)NC(C)C [compound 259] | A (100) | D (79-50)
12 | Cc1cccc(NC(=O)c2cccc(Br)c2C(=O)NC(C)C)c1C [compound 263] | A (100) | A (100)
13 | CC(C)NC(=O)c1c(Br)cccc1C(=O)Nc1ccc2c(c1)OCO2 [compound 300] | A (100) | A (100)
14 | Cc1cccc(NC(=O)c2c(Br)cccc2C(=O)NC(C)C)c1C [compound 303] | A (100) | D (79-50)
15 | Cc1ccc(Cl)cc1NC(=O)c1c(Br)cccc1C(=O)NC(C)C [compound 307] | A (100) | D (79-50)
16 | Cc1cc(Br)ccc1NC(=O)c1c(Br)cccc1C(=O)NC(C)C [compound 311] | A (100) | D (79-50)
17 | Cc1cc(F)ccc1NC(=O)c1c(Br)cccc1C(=O)NC(C)C [compound 314] | A (100) | A (100)
18 | CC(C)NC(=O)c1cccc(Br)c1C(=O)Nc1ccc(C(F)(F)F)cc1Cl [compound 315] | A (100) | A (100)
19 | Cc1ccc(NC(=O)c2c(Br)cccc2C(=O)NC(C)C)c(C)c1OC(F)F [compound 320] | A (100) | D (79-50)
20 | COc1ccc(NC(=O)c2c(Br)cccc2C(=O)NC(C)C)c(C)c1 [compound 322] | A (100) | B (99-90)

Row | Structure (SMILES) | Insecticidal effect, Test Example 1 [1] | Insecticidal effect, Test Example 3 [2]
21 | CC(C)NC(=O)c1cccc(Br)c1C(=O)Nc1ccc(OC(F)(F)F)cc1Br [compound 324] | A (100) | A (100)
22 | Cc1cc(OC(F)(F)F)ccc1NC(=O)c1c(Br)cccc1C(=O)NC(C)C [compound 326] | A (100) | A (100)
23 | Cc1cc(OC(F)(F)Br)ccc1NC(=O)c1c(Br)cccc1C(=O)NC(C)C [compound 327] | A (100) | A (100)
24 | Cc1cc(OC(F)(F)C(F)F)ccc1NC(=O)c1c(Br)cccc1C(=O)NC(C)C [compound 330] | A (100) | A (100)
25 | Cc1c(NC(=O)c2c(Br)cccc2C(=O)NC(C)C)ccc(OC(F)F)c1Cl [compound 332] | A (100) | A (100)
26 | CSc1ccc(NC(=O)c2c(Br)cccc2C(=O)NC(C)C)c(C)c1 [compound 333] | A (100) | D (79-50)
27 | Cc1cc(Oc2ccc(C(F)(F)F)cn2)ccc1NC(=O)c1c(Br)cccc1C(=O)NC(C)C [compound 335] | A (100) | B (99-90)
28 | Cc1cc(Oc2ncc(C(F)(F)F)cc2Cl)ccc1NC(=O)c1c(Br)cccc1C(=O)NC(C)C [compound 336] | A (100) | D (79-50)
29 | CC(C)NC(=O)c1cccc(Br)c1C(=O)Nc1ccc2c(c1)OCO2 [compound 337] | A (100) | A (100)
30 | Cc1cc(OC(F)F)ccc1NC(=O)c1c(Br)ccc(Br)c1C(=O)NC(C)C [compound 340] | A (100) | A (100)
31 | Cc1cc(Cl)ccc1NC(=O)c1c(Br)ccc(Br)c1C(=O)NC(C)C [compound 341] | A (100) | A (100)
32 | CC(C)NC(=O)c1c(I)cccc1C(=O)Nc1cccc(C(F)(F)F)c1 [compound 348] | A (100) | A (100)
33 | COc1ccc(NC(=O)c2cccc(I)c2C(=O)NC(C)C)c(C)c1 [compound 376] | A (100) | A (100)
34 | Cc1cc(OC(C)C)ccc1NC(=O)c1cccc(I)c1C(=O)NC(C)C [compound 377] | A (100) | A (100)
35 | CC(C)NC(=O)c1c(I)cccc1C(=O)Nc1cc(Cl)c(OC(F)F)c(Cl)c1 [compound 383] | A (100) | A (100)
36 | COc1cc(NC(=O)c2cccc(I)c2C(=O)NC(C)C)ccc1OC(F)F [compound 384] | A (100) | C (89-80)
37 | CC(C)NC(=O)c1cccc(I)c1C(=O)Nc1ccc(Cl)cc1 [compound 411] | A (100) | A (100)
38 | CC(C)NC(=O)c1cccc(I)c1C(=O)Nc1ccc(Br)cc1 [compound 412] | A (100) | C (89-80)
39 | CC(C)NC(=O)c1cccc(I)c1C(=O)Nc1ccc(I)cc1 [compound 413] | A (100) | C (89-80)
40 | CC(C)NC(=O)c1cccc(I)c1C(=O)Nc1cccc(C(F)(F)F)c1 [compound 414] | A (100) | A (100)
